A short description of data set [1]: Stability study of crystal form A (HPLC purity, XRPD crystal form). The format is physicochemical. Particulars: initial purity 100. As for the experimental part: About 10 mg of the crystal form A of the hydrochloride of the compound of formula I-1 was weighed and added into an HPLC vial, the bottle was sealed with a parafilm, 10 small holes were pierced in the film, and the vial was placed at 25° C./60% RH or 40° C./75% RH environment for 4 weeks, sampled in the first and fourth weeks respectively. Purity (using HPLC analysis) and crystal form (using X-ray powder diffraction analysis) of the samples were investigated.

Data set [2] is described as follows: Hygroscopicity by dynamic moisture absorption (DVS). The format is physicochemical. Particulars: 25° C./80RH. As for the experimental part:
Hygroscopicity was tested by dynamic moisture absorption (DVS) instrument. […] (Refer to the 2015 edition of the Chinese Pharmacopoeia (Guiding Principles for Drug Hygroscopicity Test)). • (2) Stability study of the crystal form A of the hydrochloride of the compound of formula I-1: […]

The subject of a further data set is HepG2 cells. As to the kind of experiment: Hepatocyte toxicity (CCK-8 cytotoxicity test). The format is cell-based. Particulars: Homo sapiens, 72 hours, read-out: hepatotoxicity (IC50). As for the experimental part:
(§1) HepG-2 and SH-SY5Y cells were prepared and placed in 10 cm dish and incubated at 37° C., 5% CO2 in a cell incubator; the cells were digested with trypsinize, resuspended and then counted. Based on a system of 100 μl/well, 8000 cells were transferred to a 96-well plate. The cells were incubated in a 37° C., 5% CO2 cell incubator for 24 hours; a gradient concentration system of compound I-1 (prepared in Example 2) was prepared, 2 times diluted, the system was 100 μl/well. The supernatant in the 96-well plate cell culture system on the first day was removed, and a fresh prepared drug concentration system was added to the corresponding culture plate wells culturing cells (set up duplicate wells). […] After completion of the culture, the supernatant was removed from the cell culture system of the 96-well plate, 100 μl of detection solution (medium containing 10% CCK-8) was add to each well, and incubated in a cell incubator at 37° C. and 5% CO2 for 1 hour, then taken it out and measured the absorbance at 450 nm with a microplate reader. Data were processed, cytotoxicity was calculated, and IC50 was calculated by GraphPad Prism. […]
(§2) A (dosing): absorbance of the well having cells, CCK-8 solution and drug solution
(§3) A (blank): absorbance of the well having medium and CCK-8 solution, without cells.
(§4) A (0 dosing): absorbance of the well having cells and CCK-8 solution, without drug solution […]

The test system of another data set is SNL model in rat. Put plainly: SNL model in rat, mechanical hyperalgesia test. Particulars: 10 mg/kg intragastric, 1 hour after administration, hydrochloride used; control group 3.967 ± 0.775. The format is in vivo, SD rats.
Data set [3] has as its system acetic acid writhing pain model in mice. As to the kind of experiment: Acetic acid writhing pain model in mice. Particulars: acetic acid 1 hour after administration, normal saline group 49 times. The format is in vivo, ICR mice. Here is the method:
ICR mice, male, 22-25 g, were fasted for food 2 h before administration, but can have water. All ICR mice were weighed and randomly grouped with the number of animals>10 per group. […] The mice were administered via intragastric administration according to the weight of mice. 1.5% acetic acid solution (0.1 ml/10 g) was intraperitoneally injected at 1 hour after administration, and the number of times of visceral pain in each group within 30 minutes was observed, the mice were counted once when the abdomen was concave, the trunk and hind legs were extended and the hips were elevated, and the number of times of these phenomena occurred within 30 min was finally counted.
On the technique in general: Writhing tests count abdominal constrictions after an irritant is injected.

Data set [4] has as its system hot plate induced pain model in rat. As to the kind of experiment: Hot plate induced pain model in rat. The class given is in vivo, Sprague-Dawley rats. Particulars: 30 mg/kg intraperitoneal, hydrochloride used. Here is the method:
Male, mature and unmated healthy Sprague-Dawley rats were selected, and the temperature of the cold/hot plate (product model: PE34, US IITC) was adjusted to a constant temperature of 53±0.1° C., and rats with painful response such as foot licking, foot shaking or slight jumping within 5-10 s were screened (abandoned those who evaded and jumped). […] The tested compound was freshly formulated on the day of administration. A 0.9% NaCl normal saline solution was prepared as a vehicle, an appropriate amount of the test compound was added to the required volume of normal saline, and the mixture was fully suspended to prepare the drug at a concentration of 1 mg/ml. […] The latency of thermal pain was measured at 0.5 h, 1 h and 2 h after drug administration. To avoid scalding the animals on the hot plate, the maximum latency was set to 30 s. The analgesic effect of each compound was evaluated using the maximum possible effect (MPE), i.e. MPE %=[(Post drug latency-baseline latency)/(30−baseline latency)]×100. Statistics of MPE % at different time points.

The test system of data set [5] is formalin pain model in mice. As to the kind of experiment: Formalin pain model in mice. The format is in vivo, C57BL/6 mice. Conditions: for licking time (s) in phase II (10-60 min): hydrochloride used, mice, blank Vehicle 349.55 ± 43.09. An excerpt: 150 C57BL/6 mice (male, 9 weeks) were randomly divided into 15 groups with 10 mice for each group, and were used for the analgesic activity test of 3 compounds in the formalin pain model in mice: the compound I-1 group (compound I-1 prepared in Example 2, its hydrochloride was used in the experiment), the S-duloxetine group (its hydrochloride was used in the experiment) and the compound C1 group (compound C1 prepared in Comparative Example 1, its hydrochloride was used in the experiment), respectively. Before the start of the experiment, the mice were allowed to adapt to the experimental environment for 72 hours, during which there was no need to fast for food or water. The tested drugs were administrated by intraperitoneal injection, and the doses were as follows: • The compound I-1 group: blank Vehicle (blank normal saline control), 0.1 mg/kg, 0.5 mg/kg, 1 mg/kg, 5 mg/kg and 10 mg/kg; • The S-duloxetine group: blank Vehicle (blank normal saline control), 1 mg/kg, 5 mg/kg, 10 mg/kg and 20 mg/kg; • The Compound C1 group: blank Vehicle (blank normal saline control), 0.1 mg/kg, 0.5 mg/kg, 1 mg/kg, 5 mg/kg and 10 mg/kg.
After the administration, the mice were placed in a transparent, ventilated plexiglass cylinder, and 1 hour later, 20 μl of 4% formalin solution was injected into the left hind foot plantar of each group of mice with a micro-injector, and foot pain response in mice were recorded in real time with a miniature camera. The length of time of licking the left foot was used as an indicator of pain response, the licking time were observed and recorded during two periods of 0-10 min (phase I) and 10-60 min (phase II) respectively, for statistical analysis, and the half effective dose (ED50) of the 3 compounds were calculated: ED50 refers to the drug dose that reduces the licking time by half compared with the blank control group. The smaller the ED50 value is, the lower the effective analgesic dose of the compound is and the better its analgesic effect is.

Data set [6] can be described thus: Neurocytotoxicity (CCK-8 cytotoxicity test). The class given is cell-based. Conditions: human, SH-SY5Y cells. As for the experimental part:
as §1, §2, §3, §4

The structures appear in SMILES notation. Where a name gives a salt, the structure may show the parent alone.

Protocol for SNL model in rat: SD rats were taken for surgery, male, SPF grade, mass 150 g-180 g. The surgical procedure was performed aseptically. The animals were anesthetized with sodium pentobarbital (50 mg/kg, intraperitoneal injection). The surgical area of the waist of animals was shaved, and the skin was disinfected three times with iodophor and 70% ethanol. Start the operation after the skin was dry. A longitudinal incision was made in the posterior part of the sacral bone of the animal's waist with a scalpel to expose the left paravertebral muscles, and the muscle tissue was separated with a distractor to expose the vertebra. The left spinal nerves L5 and L6 were separated, ligated with 6-0 silk thread, and the wounds were sutured. After the surgery, the animals were placed on an electric blanket and injected subcutaneously with 5 mL normal saline to prevent dehydration. When the animal was completely awake (free to move), put the animal back into the cage.
After the surgery, the animals were adapted in the experimental environment for 15 minutes/day for 3 days.
After administration, mechanical hyperalgesia test was performed. The rats were placed individually in a plexiglas box with a grid at the bottom of the box to ensure that the feet of the rats can be tested. Rats would adapt for 15 minutes before the test. […] The rapid paw withdrawal of the animal during the test was recorded as a pain response. The paw withdrawal of the animal when the test fiber left the animal's skin was also recorded as a pain response. If the animal moved or walked, it will not be recorded as a pain response, the test should be repeated. […]
Mechanical hyperalgesia was expressed as the paw withdrawal threshold (PWT) in the behavioral test of rats, which was calculated according to the following equation: 50% response threshold (g)=(10(^Xf+kδ))/10,000 • Xf=the final test fiber value used in the test • K=table value • δ=Average difference
Data were collected using Excel software and analyzed using Prism 6.01 (Graph pad software, Inc.) software.

As for `CNCC[C@@H](Oc1cccc2ccoc12)c1cccs1` [Crystal form A of the hydrochloride], the “Purity (area %)” value came out at 100 area % in data set [1] (25° C./60% RH, 1 week); 100 area % in data set [1] (25° C./60% RH, 4 weeks); 100 area % in data set [1] (40° C./75% RH, 1 week); 100 area % in data set [1] (40° C./75% RH, 4 weeks). The “weight change (hygroscopicity, DVS)” value in data set [2] is given as “less than 0.2%”.

The term IC50 denotes the point on the concentration scale where inhibition reaches its midpoint. What is called ED50 is the midpoint of the dose-response relation. Take `CNCC[C@H](Oc1cccc2ccccc12)c1cccs1` [S-duloxetine]: in the data set with HepG2 cells, the IC50 worked out at 33.3 µM. Further, the “PWT” value in the data set with SNL model in rat is 6.519 ± 2.226 g. In addition, the “number of visceral pains (writhing reactions) within 30 min” value came out at 27 times in data set [3] (10 mg/kg intragastric) and 21 times in data set [3] (20 mg/kg intragastric). The results for the MPE % in data set [4] (0.5 h), in data set [4] (1 h) and in data set [4] (2 h) were 5.75 ± 5.74%, 7.44 ± 5.12% and 13.53 ± 4.99%, respectively. The “licking time (s) in phase II (10-60 min)” value in data set [5] (1 mg/kg intraperitoneal) is 259.97 ± 64.44 s; in data set [5] (5 mg/kg intraperitoneal), 230.49 ± 41.31 s; in data set [5] (10 mg/kg intraperitoneal), 162.83 ± 36.27 s; in data set [5] (20 mg/kg intraperitoneal) it was 72.27 ± 17.29 s. Moreover, in data set [5] (Mus musculus, ip, intraperitoneal, phase II (10-60 min), dose that halves licking time vs blank control, read-out: analgesic potency ED50 in phase II pain), the ED50 came to 8 mg/kg. Also, in data set [6], 28.6 µM corresponded to half-maximal inhibition (IC50 at 72 h).

Source of the values: patent US12570643B2, “3-aryloxy-3-five-membered heteroaryl propylamine compound, and crystal form and use thereof” (Shanghai Leado Pharmatech Co. Ltd., priority 2019, dated 2026).
